Data as given in patent publication US9498483B2, “2,3,5-trisubstituted thiophene compounds and uses thereof” (priority 2010, dated 2016).

What was measured:
[1] = test system: HCV replicon I389luc-ubi-neo/NS3-3′/ET in ET (Huh-lucubineo-ET) cells; assay: Replicon assay (Biological Example 2), luciferase readout; type: cell-based; conditions: Hepatitis C virus
How it was run: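 EC50 values come from Hill fits of % inhibition of replicon-driven firefly luciferase, relative to no-compound wells. Compounds were serially diluted (10 points, 3-fold, 0.1 nM–50 μM final, 0.5% DMSO) onto ET replicon cells and read after 48 h.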

[2] = target: T1, HCV polymerase (Hepatitis C virus genotype 1b, UniProt Q9WMX2); assay: Polymerase assay of Biological Example 1 (IC50 values of Table 3); type: biochemical; conditions: IC50 values of Table 3, polymerase assay of Biological Example 1; read-out: NS5B-enzyme3
T1 construct: (His)6 (C); made in house; host or cells: XL-1 cells (E. coli, by own knowledge)

[3] = ET cells, luciferase activity 48 hours after compound

Q: Which IC50 [1, 3] does the source give for `CN(C)[C@H]1CCN(c2ccc(S(=O)(=O)N3CC(=O)N(c4cc(-c5ccccc5)sc4C(=O)O)[C@H](C4CCCCC4)C3)cn2)C1` [Compound 156, 3-{(R)-2-Cyclohexyl-4-[6-((S)-3-dimethylamino-pyrrolidin-1-yl)-pyridine-3-sulfonyl]-6-oxo-piperazin-1-yl}-5-phenyl-thiophene-2-carboxylic acid] here?
A: ≤ 100 nM

Q: And the IC50 [2]?
A: 1 nM

Q: Which IC50 [1, 3] does the source give for `CCN(CC)c1ccc(S(=O)(=O)N2CC(=O)N(c3cc(-c4ccccc4)sc3C(=O)O)C(C3CCCCC3)C2)cn1` (stereo not shown) [Compound 69, 3-[2-Cyclohexyl-4-(6-diethylamino-pyridine-3-sulfonyl)-6-oxo-piperazin-1-yl]-5-phenyl-thiophene-2-carboxylic acid] here?
A: ≤ 100 nM

Q: What about the IC50 [2] of the same compound?
A: 2 nM

Q: What does the source list for `Cc1ccc(CN2CC(=O)N(c3cc(C#CC(C)(C)C)sc3C(=O)O)C(C3CCCCC3)C2)cc1` (stereo not shown) [Compound 174, 3-[2-Cyclohexyl-4-(4-methyl-benzyl)-6-oxo-piperazin-1-yl]-5-(3,3-dimethyl-but-1-ynyl)-thiophene-2-carboxylic acid]?
A: IC50 [1, 3]: ≥ 5000 nM; IC50 [2]: 5110 nM

Q: Which results are given for `CC(C)(C)C#Cc1cc(N2C(=O)C(O)(CCCO)CCC2C2CCCCC2)c(C(=O)O)s1` (stereo not shown) [Compound 11, 3-[6-Cyclohexyl-3-hydroxy-3-(3-hydroxy-propyl)-2-oxo-piperidin-1-yl]-5-(3,3-dimethyl-but-1-ynyl)-thiophene-2-carboxylic acid]?
A: IC50 [1, 3]: ≤ 100 nM; IC50 [2]: 8 nM

Q: `C[C@@H]1CCCN1c1ccc(S(=O)(=O)N2CC(=O)N(c3cc(-c4ccccc4)sc3C(=O)O)C(C3CCCCC3)C2)cc1` (stereo partly drawn) [Compound 127, 3-{2-Cyclohexyl-4-[4-((R)-2-methyl-pyrrolidin-1-yl)-benzenesulfonyl]-6-oxo-piperazin-1-yl}-5-phenyl-thiophene-2-carboxylic acid] was tested. Which IC50 [1, 3] did it give?
A: ≤ 100 nM

Q: What about the IC50 [2] of the same compound?
A: 3 nM

Q: With `CC(=O)N1CCN(c2ccc(S(=O)(=O)N3CC(=O)N(c4cc(-c5ccccc5)sc4C(=O)O)C(C4CCCCC4)C3)cn2)CC1` (stereo not shown) [Compound 89, 3-{4-[6-(4-Acetyl-piperazin-1-yl)-pyridine-3-sulfonyl]-2-cyclohexyl-6-oxo-piperazin-1-yl}-5-phenyl-thiophene-2-carboxylic acid] as the compound, how does the IC50 [1, 3] read?
A: ≤ 100 nM

Q: And the IC50 [2]?
A: 3 nM

Q: `O=C(O)c1sc(-c2ccc(Cl)cc2)cc1N1C(=O)CN(S(=O)(=O)c2ccc(N3CC4CC3CO4)nc2)C[C@H]1C1CCCCC1` (stereo partly drawn) [Compound 229, 5-(4-Chloro-phenyl)-3-{(R)-2-cyclohexyl-4-[6-(2-oxa-5-aza-bicyclo[2.2.1]hept-5-yl)-pyridine-3-sulfonyl]-6-oxo-piperazin-1-yl}-thiophene-2-carboxylic acid] was tested. Which IC50 [1, 3] did it give?
A: ≤ 100 nM

Q: And the IC50 [2]?
A: 1 nM

Q: What does the source list for `CC(C)(C)C#Cc1cc(N2C(=O)CN(S(=O)(=O)c3ccc(C#N)cc3)C[C@H]2C2CCCCC2)c(C(=O)O)s1` [Compound 238, 3-[(R)-4-(4-Cyano-benzenesulfonyl)-2-cyclohexyl-6-oxo-piperazin-1-yl]-5-(3,3-dimethyl-but-1-ynyl)-thiophene-2-carboxylic acid]?
A: IC50 [1, 3]: ≤ 100 nM; IC50 [2]: 2 nM

Q: With `CC(C)(C)C#Cc1cc(N2C(=O)C3(CCOCC3)OC[C@H]2C2CCCCC2)c(C(=O)O)s1` [Compound 325, 3-((R)-3-Cyclohexyl-5-oxo-1,9-dioxa-4-aza-spiro[5.5]undec-4-yl)-5-(3,3-dimethyl-but-1-ynyl)-thiophene-2-carboxylic acid] as the compound, how does the IC50 [1, 3] read?
A: ≤ 100 nM

Q: What about the IC50 [2] of the same compound?
A: 6 nM

Q: What does the source list for `CC(C)(C)C#Cc1cc(N2C(=O)C(CCO)CC[C@H]2C2CCCCC2)c(C(=O)O)s1` (stereo partly drawn) [Compound 342, 3-[(S)-6-Cyclohexyl-3-(2-hydroxy-ethyl)-2-oxo-piperidin-1-yl]-5-(3,3-dimethyl-but-1-ynyl)-thiophene-2-carboxylic acid]?
A: IC50 [1, 3]: ≤ 100 nM; IC50 [2]: 18 nM

Q: How did the IC50 [1, 3] turn out when `C[C@@H]1CN(c2ccc(S(=O)(=O)N3CC(=O)N(c4cc(-c5ccc(F)cc5)sc4C(=O)O)[C@H](C4CCCCC4)C3)cn2)C[C@H](C)O1` [Compound 278, 3-{(R)-2-Cyclohexyl-4-[6-((2R,6S)-2,6-dimethyl-morpholin-4-yl)-pyridine-3-sulfonyl]-6-oxo-piperazin-1-yl}-5-(4-fluoro-phenyl)-thiophene-2-carboxylic acid] was run?
A: ≤ 100 nM

Q: What about the IC50 [2] of the same compound?
A: 1 nM

Q: For `N[C@H]1CCCN(c2ccc(S(=O)(=O)N3CC(=O)N(c4cc(-c5ccccc5)sc4C(=O)O)[C@H](C4CCCCC4)C3)cn2)C1` [Compound 142, 3-[(R)-4-((S)-3-Amino-3,4,5,6-tetrahydro-2H-[1,2′]bipyridinyl-5′-sulfonyl)-2-cyclohexyl-6-oxo-piperazin-1-yl]-5-phenyl-thiophene-2-carboxylic acid], which IC50 ([1]; between 100 nM and 5.0 uM) is on record?
A: 100 to 5000 nM

Q: And the IC50 [2]?
A: 2 nM

Q: Which IC50 ([1]; between 100 nM and 5.0 uM) does the source give for `O=C(O)c1sc(-c2ccc(F)cc2)cc1N1C(=O)CCCC1C1CCCCC1` (stereo not shown) [Compound 70, 3-(2-Cyclohexyl-6-oxo-piperidin-1-yl)-5-(4-fluoro-phenyl)-thiophene-2-carboxylic acid] here?
A: 100 to 5000 nM

Q: And the IC50 [2]?
A: 67 nM

Q: Which results are given for `O=C(O)c1sc(-c2ccccc2)cc1N1C(=O)CN(S(=O)(=O)c2ccc(-c3ccc(CN4CCOCC4)cc3)nc2)C[C@H]1C1CCCCC1` [Compound 208, 3-{(R)-2-Cyclohexyl-4-[6-(4-morpholin-4-ylmethyl-phenyl)-pyridine-3-sulfonyl]-6-oxo-piperazin-1-yl}-5-phenyl-thiophene-2-carboxylic acid]?
A: IC50 [1, 3]: ≤ 100 nM; IC50 [2]: 1.4 nM

Q: With `CC(C)(C)C#Cc1cc(N2C(=O)CN(S(=O)(=O)c3ccc(OC(F)(F)F)cc3)C[C@H]2C2CCCCC2)c(C(=O)O)s1` [Compound 223, 3-[(R)-2-Cyclohexyl-6-oxo-4-(4-trifluoromethoxy-benzenesulfonyl)-piperazin-1-yl]-5-(3,3-dimethyl-but-1-ynyl)-thiophene-2-carboxylic acid] as the compound, how does the IC50 ([1]; between 100 nM and 5.0 uM) read?
A: 100 to 5000 nM

Q: What about the IC50 [2] of the same compound?
A: 9 nM

Q: Which results are given for `COc1ccc(S(=O)(=O)N2CC(=O)N(c3cc(-c4ccccc4)sc3C(=O)O)C(C3CCCCC3)C2)cc1C(=O)O` (stereo not shown) [Compound 29, 3-[4-(3-Carboxy-4-methoxy-benzenesulfonyl)-2-cyclohexyl-6-oxo-piperazin-1-yl]-5-phenyl-thiophene-2-carboxylic acid]?
A: IC50 ([1]; between 100 nM and 5.0 uM): 100 to 5000 nM; IC50 [2]: 1 nM

Q: Which IC50 [1, 3] does the source give for `Cc1ccc(-c2cc(N3C(=O)CN(S(=O)(=O)c4ccc(N5CC6CCC(C5)O6)nc4)C[C@H]3C3CCCCC3)c(C(=O)O)s2)cc1` [Compound 198, 3-{(R)-2-Cyclohexyl-4-[6-(8-oxa-3-aza-bicyclo[3.2.1]oct-3-yl)-pyridine-3-sulfonyl]-6-oxo-piperazin-1-yl}-5-p-tolyl-thiophene-2-carboxylic acid] here?
A: ≤ 100 nM

Q: What about the IC50 [2] of the same compound?
A: 1 nM

Q: `Cc1ccc(-c2cc(N3C(=O)CN(S(=O)(=O)c4ccc(N5CCCC5)nc4)C[C@H]3C3CCCCC3)c(C(=O)O)s2)cc1` [Compound 272, 3-[(R)-2-Cyclohexyl-6-oxo-4-(6-pyrrolidin-1-yl-pyridine-3-sulfonyl)-piperazin-1-yl]-5-p-tolyl-thiophene-2-carboxylic acid] was tested. Which IC50 [1, 3] did it give?
A: ≤ 100 nM

Q: And the IC50 [2]?
A: 1 nM

Q: Which IC50 [1, 3] does the source give for `C[C@@H](O)CC[C@]1(C)OC[C@@H](C2CCCCC2)N(c2cc(C#CC(C)(C)C)sc2C(=O)O)C1=O` [Compound 320, 3-[(2S,5R)-5-Cyclohexyl-2-((R)-3-hydroxy-butyl)-2-methyl-3-oxo-morpholin-4-yl]-5-(3,3-dimethyl-but-1-ynyl)-thiophene-2-carboxylic acid] here?
A: ≤ 100 nM

Q: What about the IC50 [2] of the same compound?
A: 6 nM

Q: For `CC(C)c1ccc(S(=O)(=O)N2CC(=O)N(c3cc(-c4ccccc4)sc3C(=O)O)C(C3CCCCC3)C2)cc1` (stereo not shown) [Compound 100, 3-[2-Cyclohexyl-4-(4-isopropyl-benzenesulfonyl)-6-oxo-piperazin-1-yl]-5-phenyl-thiophene-2-carboxylic acid], which IC50 ([1]; between 100 nM and 5.0 uM) is on record?
A: 100 to 5000 nM

Q: And the IC50 [2]?
A: 4 nM

Q: Which IC50 [1, 3] does the source give for `CC(C)(C)C#Cc1cc(N2C(=O)C(CCCO)OC[C@H]2C2CCCCC2)c(C(=O)O)s1` (stereo partly drawn) [Compound 299, 3-[(R)-5-Cyclohexyl-2-(3-hydroxy-propyl)-3-oxo-morpholin-4-yl]-5-(3,3-dimethyl-but-1-ynyl)-thiophene-2-carboxylic acid] here?
A: ≤ 100 nM

Q: What about the IC50 [2] of the same compound?
A: 5 nM

Q: What does the source list for `Cn1ccc2cccc(S(=O)(=O)N3CC(=O)N(c4cc(-c5ccccc5)sc4C(=O)O)C(C4CCCCC4)C3)c21` (stereo not shown) [Compound 57, 3-[2-Cyclohexyl-4-(1-methyl-1H-indole-7-sulfonyl)-6-oxo-piperazin-1-yl]-5-phenyl-thiophene-2-carboxylic acid]?
A: IC50 [1, 3]: ≥ 5000 nM; IC50 [2]: 260 nM

Q: What does the source list for `O=C(O)c1sc(-c2ccccc2)cc1N1C(=O)CN(S(=O)(=O)c2ccc(N3CCN4CCCC4C3)nc2)C[C@H]1C1CCCCC1` (stereo partly drawn) [Compound 157, 3-{(R)-2-Cyclohexyl-4-[6-(hexahydro-pyrrolo[1,2-a]pyrazin-2-yl)-pyridine-3-sulfonyl]-6-oxo-piperazin-1-yl}-5-phenyl-thiophene-2-carboxylic acid]?
A: IC50 [1, 3]: ≤ 100 nM; IC50 [2]: 1 nM

Q: How did the IC50 ([1]; between 100 nM and 5.0 uM) turn out when `CC(C)(C)C#Cc1cc(N2C(=O)C(CC(=O)N3CCOCC3)OC[C@H]2C2CCCCC2)c(C(=O)O)s1` (stereo partly drawn) [Compound 294, 3-[(R)-5-Cyclohexyl-2-(2-morpholin-4-yl-2-oxo-ethyl)-3-oxo-morpholin-4-yl]-5-(3,3-dimethyl-but-1-ynyl)-thiophene-2-carboxylic acid] was run?
A: 100 to 5000 nM

Q: And the IC50 [2]?
A: 7 nM

Q: What does the source list for `CC(C)(C)C#Cc1cc(N2C(=O)CN(S(=O)(=O)c3cn[nH]c3)C[C@H]2C2CCCCC2)c(C(=O)O)s1` [Compound 241, 3-[(R)-2-Cyclohexyl-6-oxo-4-(1H-pyrazole-4-sulfonyl)-piperazin-1-yl]-5-(3,3-dimethyl-but-1-ynyl)-thiophene-2-carboxylic acid]?
A: IC50 [1, 3]: ≤ 100 nM; IC50 [2]: 1 nM

Q: With `O=C(O)c1sc(-c2ccc(Cl)cc2)cc1N1C(=O)CN(S(=O)(=O)c2ccc(N3CCCOCC3)nc2)C[C@H]1C1CCCCC1` [Compound 200, 5-(4-Chloro-phenyl)-3-[(R)-2-cyclohexyl-4-(6-[1,4]oxazepan-4-yl-pyridine-3-sulfonyl)-6-oxo-piperazin-1-yl]-thiophene-2-carboxylic acid] as the compound, how does the IC50 [1, 3] read?
A: ≤ 100 nM

Q: And the IC50 [2]?
A: 1 nM
